Data on 1 compound can be found in patent US5753483A (priority 1995, dated 1998).

Assay [1] concerns UDP-GlcNAc pyrophosphorylase. Nature of the assay: Inhibition of pyrophosphorolysis of UDP-[^3 H]GlcNAc by nucleotides (FIG. 3). The format is biochemical, pig. The note with it: increasing concentrations; reverse direction. The method, then:
Activity was measured in the reverse direction (i.e., production of GlcNAc-1-P) as indicated.
(§1) When measured in the reverse direction, either a direct assay or an indirect assay could be used. […] The incubation mixtures contained the following components in a final volume of 50 μl: 5 mM sodium pyrophosphate, 250 uM UDP-[^3 H]GlcNAc (2.2 Ci/mmol), 100 mM Tris HCl buffer, pH 8.5, 2 mM MgCl2, and various amounts of enzyme at the different stages of purification. […] The suspension was vortexed vigorously for 2 minutes, and was then centrifuged in a microfuge. The supernatant liquid was removed and saved, and the charcoal was washed with 1 ml of water. The supernatant liquid from this wash was combined with the first supernatant liquid, and an aliquot was removed and counted, as a measure of the formation of GlcNAc-1-P.

Assay [2] has as its target T1, UDP-GlcNAc pyrophosphorylase (Sus scrofa, UniProt F1S210).
T1 construct: both 64 and 55 kDa bands photolabelled
Nature of the assay: Photoaffinity labeling of purified pyrophosphorylase and its inhibition (FIG. 5). Type of assay: binding, pig. The note with it: unlabeled UDP-GalNAc or UDP-glucose. Here is the method:
Enzyme was incubated with radioactive probe in the presence or absence of various inhibitors, and some of the incubations were exposed to UV light to activate the probe. Each incubation was treated with trichloroacetic acid to precipitate the protein, and the pellet was resuspended in SDS and subjected to SDS-PAGE. Radioactive proteins were detected by exposure to film. […]

The subject of assay [3] is sheep brain enzyme. The note with it: cited from earlier work.
In assay [4] the target is T2, Pyrophosphorylase (Sus scrofa, UniProt F1S210).
T2 construct: 64 and 55 kDa bands; native about 125 kDa
T2 sequence (F1S210 1-505): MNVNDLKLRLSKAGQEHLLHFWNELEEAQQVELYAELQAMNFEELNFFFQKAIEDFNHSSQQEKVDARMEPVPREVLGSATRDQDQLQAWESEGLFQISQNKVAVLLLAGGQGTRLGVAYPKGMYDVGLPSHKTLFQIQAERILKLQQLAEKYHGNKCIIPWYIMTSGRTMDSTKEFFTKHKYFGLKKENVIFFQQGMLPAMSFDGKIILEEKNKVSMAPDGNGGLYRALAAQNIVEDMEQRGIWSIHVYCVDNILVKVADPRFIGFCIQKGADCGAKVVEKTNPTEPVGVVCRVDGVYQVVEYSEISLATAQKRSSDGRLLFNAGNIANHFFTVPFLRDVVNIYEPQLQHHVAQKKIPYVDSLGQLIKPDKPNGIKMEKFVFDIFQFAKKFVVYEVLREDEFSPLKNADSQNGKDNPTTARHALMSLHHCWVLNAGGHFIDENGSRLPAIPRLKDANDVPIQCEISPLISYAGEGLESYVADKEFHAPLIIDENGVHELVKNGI
Nature of the assay: Specificity of pyrophosphorylase (reverse direction). The format is biochemical, pig. The method, then:
as §1
(§2) For the indirect assay, a modification of the spectrophotometric method of Munch-Petersen, (1956) Acta Chim. Scand. […] The assay mixtures contained 50 mM Tris-HCl buffer, pH 7.5, 1 mM MgCl2, 0.5 mM ADP, 1 mM glucose, 0.5 mM NADP, 1 mM inorganic pyrophosphate, 2 mM UDP-HexNAc and 2.5 units each of nucleoside diphosphate kinase, hexokinase and glucose-6-P dehydrogenase.
The substrate specificity of the purified enzyme was examined in both the forward and the reverse direction.

Assay [5] concerns enzyme from bacteria. The note with it: cited from earlier work.
Assay [6] has as its system UDP-GlcNAc pyrophosphorylase. The note with it: reverse direction, at 1 mM inorganic pyrophosphate. Here is the method:
as §1, §2

Assay [7] deals with UDP-GlcNAc pyrophosphorylase. The note with it: from 10 μmol GalNAc-1-P or glucose-1-P, and UTP.
Procedure: The reaction products, formed in either the forward direction (i.e., uridine diphosphate sugars), or in the reverse direction (i.e., UTP and sugar-i-P's), were isolated by chromatography on a 1×20
column of DEAE-cellulose (HCO3 -), equilibrated in 10 mM NH4 HCO3. After application of the sample, the column was washed with the same solution and the retained products were eluted with 200 ml of a linear 10 to 300 mM gradient of NH4 HCO3. Fractions were analyzed for nucleotides by measuring the absorption at 260 nm, for radioactivity by scintillation counting, and for hexosamine by the Reissig test (J. Biol. Chem., 217, 959-966, 1955) or the or the Elson Morgan assay (Wheat, R. W. (1966) Meth. Enzymol. 8, 60-78). Peak fractions were pooled and concentrated on a rotary evaporator and NH4 H CO3 was removed by evaporation in the presence of triethylamine. The triethylamine was in turn removed by evaporation in the presence of methanol.
The reaction products were identified by chromatography, either directly, or following various treatments such as digestion with phosphodiesterase or alkaline phosphatase, or acid hydrolysis. Nucleotides were identified by TLC in the following systems: PEI plates developed in 0.2M and 0.4M solutions of LiCl; cellulose plates in ethanol: 1M ammonium acetate, pH 7.3 (7:3), or silica gel plates in ethanol: 1M ammonium acetate, pH 5.0 (7:3). N-acetyl-hexosamines were released from nucleotides by mild acid hydrolysis (0.01 N HCl, 100° C., 15 minutes) and identified by chromatography on borate-treated paper in n-butanol:pyridine:water (6:4:3) as described earlier by Cardini and Leloir, (1953) Arch. Biochem. Biophys., 45, 317-324.
After deproteinization, the aqueous phase was applied to a column of DE-52 and sugar phosphates and nucleoside diphosphate sugars were separated with a gradient of NH4 HCO3, as shown in FIG. 4. […] The peak was pooled and subjected to TLC in 3 different solvent systems as described above.
The characterization of these products was also based on the products produced by phosphosdiesterase, mild acid hydrolysis and other treatments.
Assay [8] deals with UDP-GlcNAc pyrophosphorylase. The note with it: calf liver and Staphylococcus aureus preparations; cited from earlier work.

T1 sequence (F1S210 1-505): as above

A word on the Km: it is the substrate concentration at which the rate is half of its maximum. Broadly, the Vmax is the top rate of the reaction or transport when substrate is in excess. Regarding `CC(=O)N[C@H]1[C@@H](OP(=O)(O)OP(=O)(O)OC[C@H]2O[C@@H](n3ccc(=O)[nH]c3=O)[C@H](O)[C@@H]2O)O[C@H](CO)[C@H](O)[C@@H]1O` [UDP-GalNAc, UDP-N-acetylgalactosamine], the “inhibition of reaction with UDP-[^3 H]GlcNAc” value in assay [1] was “inhibited by increasing concentrations”. Also, the inhibition of labeling entry in assay [2] was “also blocked, although not nearly as effectively”. Moreover, in assay [3], the “activity as substrate (in words)” value is “not with UDP-GalNAc”. For the same compound, the “substrate preference, reverse direction” value in assay [4] was “preferred UDP-GalNAc over UDP-GlcNAc”. The same compound gave an Activity in assay [4] (5 mM, PP = 1 mM) of 19.7 nmol/min. The “Relative Activity” value in assay [4] (5 mM, PP = 1 mM, UDP-GalNAc = 100) came to 100%. In addition, the “activity relative to UDP-GlcNAc” value in assay [5] is 2.6%. Further, in assay [6], the Michaelis-Menten constant (Km) worked out at 200 µM and the Vmax is recorded as 31.3 nmol/min. Besides, in assay [7], the amount formed came to 8.2 µmol and the “amount formed, percent” value is given as 82%. Further, in assay [8], the “rate of phosphorolysis relative to UDP-GlcNAc” value is recorded as “about 2.8%”.
